Test results as given in patent US20150093744A1 (priority 2013, published 2015).
“And” between values parts separate entries of the source, which are not always exact repeats. Equal entries are not always repeated. Where two headings read alike, the source gives them in different places.

Legend:
TV = details: cited from earlier work
Tulane virus (TV) [1] = system: Tulane virus (TV)
Tulane virus (TV) [2] = system: Tulane virus (TV); remark: listed apart in the source
MNV = details: cited from earlier work
Tulane virus (TV) [3] = system: Tulane virus (TV); remark: listed apart in the source
FCV = details: cited from earlier work
[4] = system: Tulane virus capsid binding to Human Blood Group Antigen (HBGA) receptor

SMILES: CCO [EtOH, ethanol]
- EtOH concentration required to exceed 4 D reduction in virus titer (TV): 50-70%
- reduction of TV titer (Tulane virus (TV) [1]): over 99.5%
- detection of virus genome or amplification of virus (Tulane virus (TV) [2]): neither virus genome nor amplification of virus was detectable
- EtOH concentration required to exceed 4 D reduction in virus titer (MNV): 60%
- detection of virus genome or amplification of virus (Tulane virus (TV) [3]): neither virus genome nor amplification of virus was detectable
- EtOH concentration required to exceed 4 D reduction in virus titer (FCV): 70%
- Binding of viral capsid to Human Blood Group Antigen (HBGA) [4]: significantly reduced
- Ct (HuNoV (GII.4 NoV)): 40.7 ± 1.4
- Reduction(%) (HuNoV (GII.4 NoV)): 99.3 ± 0.8%
- completeness of inactivation of HuNoV (HuNoV (GII.4 NoV)): not complete
- reduction in copy number (HuNoV (GII.4 NoV)): 99.33% and 88.5% and 99.3%
- reduction in copy numbers (HuNoV (GII.4 NoV)): < 3 log
- ΔCt (HuNoV (GII.4 NoV)): 9.7
